Assay results as given in US9340568B2, “Solid forms of an antiviral compound” (Gilead Pharmasset LLC, priority 2013, dated 2016).

Experiment: Dynamic vapor sorption (DVS) moisture sorption isotherm
Format: physicochemical
Conditions: relative humidity (RH) of 90%, sorption cycle 1
Protocol: DVS isotherms were generated on a Surface Measurement Systems Dynamic Vapor Sorption Advantage moisture sorption analyzer. Water adsorption and desorption were studied as a function of relative humidity over the range of 0 to 90% RH using 10% RH steps with a fixed equilibration time of 60 minutes per step.

Row | SMILES | change in mass as measured by dynamic vapor sorption (DVS)
1 | CC(C)OC(=O)[C@H](C)N[P@](=O)(OC[C@H]1O[C@@H](n2ccc(=O)[nH]c2=O)[C@](C)(F)[C@@H]1O)Oc1ccccc1 [Compound I, Form 7, (S)-isopropyl 2-((S)-(((2R,3R,4R,5R)-5-(2,4-dioxo-3,4-dihydropyrimidin-1(2H)-yl)-4-fluoro-3-hydroxy-4-methyltetrahydrofuran-2-yl)methoxy)(phenoxy)phosphorylamino) propanoate] | about 0.15%
2 | CC(C)OC(=O)[C@H](C)N[P@](=O)(OC[C@H]1O[C@@H](n2ccc(=O)[nH]c2=O)[C@](C)(F)[C@@H]1O)Oc1ccccc1 [Compound I, Form 8, (S)-isopropyl 2-(((S)-(((2R,3R,4R,5R)-5-(2,4-dioxo-3,4-dihydropyrimidin-1(2H)-yl)-4-fluoro-3-hydroxy-4-methyltetrahydrofuran-2-yl)methoxy)(phenoxy)phosphoryl)amino) propanoate] | about 0.17%
